Results on two compounds are retold here after patent US20230190690A1, “[…] AND/OR […] FOR CORONAVIRUS DISEASE 2019 (COVID-19)” (NEOPHARMA JAPAN CO., LTD., priority 2020, published 2023).

Like-named read-outs stand apart in the source and are kept apart here.

The test system of data set [1] is coronavirus disease 2019 (COVID-19). The experiment in a line: Treatment example: intake of supplement capsules by a patient with COVID-19 symptoms. In kind it is in vivo, human. To be noted: 1 patient; intake of capsules over two days.
The subject of data set [2] is SARS-CoV-2. The experiment in a line: microbe, parasite or virus in culture. In kind it is cell-based, SARS-CoV-2 (Caco-2, human colon cancer cells).
Data set [3] has as its system VeroE6 cells, Caco-2 cells. As to the kind of experiment: Cytotoxic effect in VeroE6 and Caco-2 cells. The class given is cell-based. Conditions: all concentration ranges tested (up to 2000 uM). How it is done: In order to confirm the dose dependence in the inhibitory effect on SARS-CoV-2 infection and/or proliferation, the agents at each concentration were tested.

Data set [4] has as its system SARS-CoV-2. The experiment in a line: microbe, parasite or virus in culture. The class given is cell-based, SARS-CoV-2 (VeroE6, African green monkey kidney cells).

Turning to `NCC(=O)CCC(=O)O` [5-ALA, 5-aminolevulinic acid], the “various symptoms of coronavirus disease 2019 (COVID-19)” value in data set [1] is “remarkably improved”. Also, the “SARS-CoV-2 infection and/or proliferation” value in the data set with SARS-CoV-2 [2] is recorded as “strongly inhibited”. Also, the IC50 in the data set on SARS-CoV-2 [2] (Severe acute respiratory syndrome coronavirus 2, Caco-2 cells, FIG. 6, read-out: IC50 of inhibition of SARS-CoV-2 infection and/or proliferation) is 39 µM; with SARS-CoV-2 [4] (Severe acute respiratory syndrome coronavirus 2, Vero C1008, VeroE6 cells, FIG. 5, read-out: IC50 of inhibition of SARS-CoV-2 infection and/or proliferation), 570 µM. In data set [3], the cytotoxicity result is recorded as “did not show significant cytotoxicity”. Besides, the “infection with SARS-CoV-2” value with SARS-CoV-2 [4] (VeroE6, number of seeded cells 1×10^4 cells/well) is recorded as “significantly inhibited”.
Turning to sodium ferrous citrate [SFC], the “inhibitory effect on SARS-CoV-2 infection and/or proliferation, dose dependence” value with SARS-CoV-2 [4] (VeroE6 cells, FIG. 5) was “no inhibitory effect”.
